# Experimental data reported in patent US9750748B2, “Pyridazinones as DAAO enzyme inhibitors” (TAKEDA PHARMACEUTICAL COMPANY LIMITED, priority 2012, dated 2017).
# pIC50: −log10 of the molar value.
# Biological target: Human DAAO enzyme (Homo sapiens (Human), UniProt P14920)
# Test: In Vitro DAAO Enzyme Assay (Amplex Red detection of H2O2 from D-Serine)
# Type: biochemical
# Conditions: inhibition of DAAO activity in the presence of 10 mM D-Serine; 60 minutes at 25° C.
# Procedure: In Vitro DAAO Enzyme Assay
# The functional activity of compounds inhibiting the DAAO enzyme was determined by utilizing the co-product of the catalysis of D-Serine, H2O2, which can be quantitatively measured using the ‘Amplex’ (trade mark) Red (Invitrogen) detection. ‘Amplex’ Red reagent is a colorless substrate that reacts with hydrogen peroxide (H2O2) with a 1:1 stoichiometry to produce highly fluorescent resorufin (excitation/emission maxima=570/585 nm).
# The Km of D-Serine was measured for each enzyme batch to maintain consistency; this Km was used in subsequent assays.
# On the day of the assay compounds were serially diluted in DMSO before being diluted 1:20 with assay buffer (20 mM Tris ph 7.4). […] Finally 5 μl ‘Amplex’ red reagent (Invitrogen) was added to all wells as per manufacturer's protocol. The plate was incubated for 60 minutes in the dark at 25° C. and the fluorescence in each well was measured in the Envision plate reader.
# Concentration response curves were generated using the average of duplicate wells for each data point and analyzed using non-linear regression and four parameter curve fit.
# Sequence of Human DAAO enzyme (P14920 whole entry): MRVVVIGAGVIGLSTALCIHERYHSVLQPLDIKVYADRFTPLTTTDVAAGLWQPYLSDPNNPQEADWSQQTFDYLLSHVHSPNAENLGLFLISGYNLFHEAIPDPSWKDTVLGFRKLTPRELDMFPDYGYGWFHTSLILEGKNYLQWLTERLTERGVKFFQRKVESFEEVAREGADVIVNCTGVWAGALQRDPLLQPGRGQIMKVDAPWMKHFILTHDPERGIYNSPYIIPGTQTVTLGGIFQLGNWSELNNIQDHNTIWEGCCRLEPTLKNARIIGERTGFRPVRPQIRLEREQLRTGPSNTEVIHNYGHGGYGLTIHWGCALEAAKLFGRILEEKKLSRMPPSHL
row,Compound,pIC50
1,"CCc1cc(O)c(=O)[nH]n1 [Example 1, 6-Ethyl-4-hydroxypyridazin-3(2H)-one]",7.96
2,"CC(C)CCc1cc(O)c(=O)[nH]n1 [Example 2, 4-Hydroxy-6-(3-methylbutyl)pyridazin-3(2H)-one]",7.21
3,"O=c1[nH]nc(C2CC2)cc1O [Example 3, 6-Cyclopropyl-4-hydroxypyridazin-3(2H)-one]",7.40
4,"O=c1[nH]nc(C2CCOCC2)cc1O [Example 4, 4-Hydroxy-6-(tetrahydro-2H-pyran-4-yl)pyridazin-3(2H)-one]",5.39
5,"CC(C)Cc1cc(O)c(=O)[nH]n1 [Example 5, 4-Hydroxy-6-(2-methylpropyl)pyridazin-3(2H)-one]",6.85
6,"O=c1[nH]nc(C2CCCC2)cc1O [Example 6, 6-Cyclopentyl-4-hydroxypyridazin-3(2H)-one]",6.17
7,"O=c1[nH]nc(C2CCCCC2)cc1O [Example 7, 6-Cyclohexyl-4-hydroxypyridazin-3(2H)-one]",5.96
8,"CC(C)c1cc(O)c(=O)[nH]n1 [Example 8, 4-Hydroxy-6-isopropylpyridazin-3(2H)-one]",7.44
9,"O=c1[nH]nc(N2CCC2)cc1O [Example 9, 6-(Azetidin-1-yl)-4-hydroxypyridazin-3(2H)-one]",5.60

# Other lines, results leading:
row,pIC50,Compound
1,7.34,"CN(C)c1cc(O)c(=O)[nH]n1 [Example 10, 6-(Dimethylamino)-4-hydroxypyridazin-3(2H)-one]"
2,6.74,"CCCN(C)c1cc(O)c(=O)[nH]n1 [Example 11, 4-Hydroxy-6-(methyl(propyl)amino)pyridazin-3(2H)-one]"
3,6.82,"CCN(C)c1cc(O)c(=O)[nH]n1 [Example 12, 6-(Ethyl(methyl)amino)-4-hydroxypyridazin-3(2H)-one]"
4,5.44,"O=c1[nH]nc(N2CCCCC2)cc1O [Example 13, 4-Hydroxy-6-(piperidin-1-yl)pyridazin-3(2H)-one]"
5,7.36,"CC(C)(C)c1cc(O)c(=O)[nH]n1 [Example 14, 6-tert-Butyl-4-hydroxypyridazin-3(2H)-one]"
